# According to PMC11784839, “Monoaminergic neurotransmitters are bimodal effectors of tau aggregation” (Science Advances, 2025):
# Target: tau (Homo sapiens, UniProt P10636)
# Test: MCE Phenols Library screening, tau biosensor cell seeding assay (AvZ)
# Format: cell-based
# Conditions: for Z repl 1 / Z Repl 2: Z score; for Z repl 1 / raw data 1: replicate 1; for Z Repl 2 / raw data 2: replicate 2; for AvZ (average z score of seeding, SDs from the mean level of seeding): 10 μM phenol in cell cultures, AD brain homogenate preincubated 16 hours, two biological replicates, positive = catalyzes seeding, negative = inhibits
# [1] = average Z score of two replicates, Phenols Library screen
# [2] = average Z score of the two replicates, MCE Phenols Library screen
# [3] = average puncta of the two replicates
# tau, sequence (P10636 623-695 limits assumed): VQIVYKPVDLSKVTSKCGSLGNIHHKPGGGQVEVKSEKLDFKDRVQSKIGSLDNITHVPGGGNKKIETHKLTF
SMILES,Z repl 1,Z Repl 2,av Z [1],av puncta (average of raw data 1 and 2),raw data 1 (puncta),raw data 2 (puncta),av Z [2],av puncta [3],raw data 1 (raw puncta),raw data 2 (raw puncta),"AvZ (average z score of seeding, SDs from the mean level of seeding)","av Z (average Z score of the two replicates, tau seeding)"
CC(=O)c1c(C)cc2cccc(O)c2c1O [Nepodin],-0.364,0.129,-0.118,18059,21978.8,14139.2,,,,,,
COc1ccc(-c2cc(=O)c3c(O)c(OC)c(O)c(OC)c3o2)cc1 [Nevadensin],-0.55,-0.108,,,,,-0.329,15677.7,19746.6,11608.9,,
O=C1O[C@@H]2[C@@H](O)[C@H](O)[C@@H](CO)O[C@H]2c2c1cc(O)c(O)c2O [Norbergenin],-0.528,0.442,-0.043,18743.5,20005.8,17481.2,,,,,,
COc1cc(CNC(=O)CCCCCC(C)C)ccc1O [Nordihydrocapsaicin],-0.001,-0.682,,,,,,15905.5,26333.1,5477.91,-0.342,
CC(Cc1ccc(O)c(O)c1)C(C)Cc1ccc(O)c(O)c1 (stereo not drawn) [Nordihydroguaiaretic acid],-0.326,0.012,-0.157,17666.9,22434.9,12898.9,,,,,,
Cc1cc(=O)c2c(O)cc(O)cc2o1 [Noreugenin],-0.363,-0.457,,,,,-0.41,14938,21994.8,7881.17,,
CC(C)(O)CCc1c(O)cc(O)c2c(=O)c(O)c(-c3ccc(O)cc3)oc12 [Noricaritin],0.56,0.239,,24195.2,33071.8,15318.5,,,,,0.399,
O=c1c2c(O)cc(O)cc2oc2c(O)ccc(O[C@@H]3O[C@H](CO)[C@@H](O)[C@H](O)[C@H]3O)c12 [Norswertianolin],-0.236,-0.647,,,,,-0.441,14688.3,23518.4,5858.11,,
O=c1cc(-c2ccccc2)oc2c(O)c(O)cc(O)c12 [Norwogonin],-0.966,-0.652,,10276.7,14754.3,5799.06,-0.809,,,,,
CC(C(=O)c1ccc(O)cc1O)c1ccc(O)cc1 (stereo not drawn) [O-Desmethylangolensin],0.135,-0.221,-0.043,19189.1,27969,10409.2,,,,,,
COc1c(O)c(C)cc2c1C(=O)c1c(O)cccc1C2=O [Obtusifolin],-0.23,0.069,-0.081,18542,23582.4,13501.7,,,,,,
C[C@@H]1CC(=O)c2c(ccc3c2C(=O)c2cccc(O)c2C3=O)C1 [Ochromycinone],-0.991,-0.213,,,14447.4,10495.4,-0.602,12471.4,,,,
COc1cc(CCC(O)CC(O)CCc2ccc(O)c(OC)c2)ccc1O (stereo not drawn) [Octahydrocurcumin],-0.643,0.033,,,,,-0.305,15871.9,18628.3,13115.6,,
Cl.NCC(O)c1ccc(O)cc1 (stereo not drawn) [Octopamine (hydrochloride)],-0.187,0.177,,19376.3,24099.8,14652.9,,,,,-0.005,
O=C(/C=C/c1ccc(O)c(O)c1)c1ccc(O)c(O)c1O [Okanin],-1.882,-1.187,,1923.27,3755.83,90.703,-1.534,,,,,
COc1ccc(CC(=O)c2ccc(O)cc2O)cc1 [Ononetin],-0.169,0.358,0.095,20456.3,24324.1,16588.6,,,,,,
Cc1cc(O)cc(O)c1 [Orcinol],-1.362,-0.316,,9697.38,9999.31,9395.45,,,,,-0.839,
O=c1cc(-c2ccc(O)c(O)c2)oc2c([C@@H]3O[C@H](CO)[C@@H](O)[C@H](O)[C@H]3O)c(O)cc(O)c12 [Orientin],0.558,-0.368,0.095,20945,33050.1,8839.87,,,,,,
O=c1cc(-c2ccccc2)oc2cc(O[C@@H]3O[C@H](CO[C@@H]4O[C@H](CO)[C@@H](O)[C@H](O)[C@H]4O)[C@@H](O)[C@H](O)[C@H]3O)c(O)c(O)c12 [Oroxin B],-0.164,-0.982,,,24381.7,2282.35,-0.573,13332,,,,
COc1c(O[C@@H]2O[C@H](C(=O)O)[C@@H](O)[C@H](O)[C@H]2O)cc2oc(-c3ccccc3)cc(=O)c2c1O [Oroxylin A-7-O-glucuronide],-0.296,0.55,,20714.9,22792.7,18637,,,,,,0.127
